Where only a bound is given, the exact number is not on record here.

One data set has as its system serotonin release, raphe. In words: Release of biogenic amines from brain tissue: serotonin, raphe. The data set is classed as in vivo, Wistar rats. The method, then:
(§1) The method described in Life Sci., 56, 611-620 (1995) was used. After Wistar rats were decapitated, appropriate brain samples, which were striatun, substantia nigra, tuberculum olfactorium, locus coeruleus and raphe, were removed quickly and soaked in oxygenated (95% O2 and 5% CO2) Krebs solution at 37° C. The composition of Krebs solution was as follows in […]: NaCl 111, KCl 4.7, CaCl2 2.5, MgSO4 1.64, NaHCO3 25, KH2 PO4 1.2, glucose 11, 50 mg/l ascorbic add and 20 mg/l EDTA-2 Na. The preparations, soaked in one organ bath, were as follows: 1) four pieces of striatum (each halved), 2) four pieces of substantia nigra, 3) four pieces of tuberculum olfactorium; 4) eight pieces of locus coeruleus; 5) eight pieces of raphe. After incubation of the appropriate tissue for 20 min, the Krebs solution was replaced, the tissue soaked for 20 min in Krebs solution dissolving the compounds of this invention and the amount of biogenic amine released during this period of time was estimate. The compounds of this invention and PPAP, control compound, were dissolved in saline and were administered subcutaneously before 30 min to removing brain sample. For measuring noradrenaline and dopamine, samples were purified on 60 mg alumina containing micro columns (BDH Chemicals Ltd.) according to the method described in J. Pharmacol. Exp. Ther., 138, 360-372 (1962) For measuring serotonin, samples were purified on 15 mg Sephadex G-10 micro columns (Pharmacia). Dopamine, noradrenaline and serotonin were determined by high performance liquid chromatography (Waters 746 data module) with electrochemical detection (Waters 460 electrochemical detector). Waters Resolve 5μ Spherical C18 3.9×150 mm column was used as separating column and triethylamine-phosphate buffer (pH 5.2), containing 200 mg/l octane sulfonate sodium and 18 mg/l EDTA-2 Na with 6% acetonitrile, was used as mobile phase. The release amount of appropriate amine was noted as nmol/g tissue released for 20 min. deference of means tested by Student's t-test and significant level was set at P<.05.

A short description of data set [1]: Toxicity screening using primary cultured hepatocyte (LDH release). Format: cell-based, rat. To be noted: rat, primary hepatocytes, 24 hr, control 0.5% saline or 0.5% DMSO, read-out: Percent control of LDH release. The protocol:
(§2) The hepatocytes was prepared from rat liver by collagenase perfusion method and suspension containing 5×10^5 cells/ml were prepared. After cultivation for 24 hr, the suspension was exchanged to the William's Medium E (GIBCO BRL) containing 10 or 100 μM of the compounds of this invention. After cultivation for 24 hr, the activity of lactate dehydrogenase (LDH) released in the medium was measured.
In general terms: Release of lactate dehydrogenase indicates damage to the cell membrane.

The subject of data set [2] is primary cultured hepatocyte. The data set is described as above. Format: cell-based, rat. To be noted: 10 μM. The protocol: as §2
The subject of data set [3] is dopamine release, tuberculum olfactorium. Put plainly: Release of biogenic amines from brain tissue: dopamine, tuberculum olfactorium. The data set is classed as in vivo, Wistar rats. The method, then: as §1
Data set [4] relates to dopamine release, substantia nigra. Put plainly: Release of biogenic amines from brain tissue: dopamine, substantia nigra. The data set is classed as in vivo, Wistar rats. The protocol: as §1
In data set [5] the test system is noradrenaline release, locus coeruleus. Put plainly: Release of biogenic amines from brain tissue: noradrenaline, locus coeruleus. The data set is classed as in vivo, Wistar rats. The protocol:
as §1

The test system of data set [6] is dopamine release, striatum. In words: Release of biogenic amines from brain tissue: dopamine, striatum. Format: in vivo, Wistar rats. The method, then:
as §1

Data set [7] relates to rats reduced learning ability by tetrabenazine. Put plainly: Conditioned avoidance task in the shuttle box (tetrabenazine-treated rats). The data set is classed as in vivo, rat. To be noted: tetrabenazine 1 mg/kg s.c., significance and direction. The protocol:
The method described in Life Sci., 58, 817-827 (1996) was used. The effects on conditioned avoidance reflex (CARs) was analyzed in the shuttle box using male and female rats (weighing 200-220 g) whose leaning abilities were reduced by treatment of tetrabenazine. The instrument was constructed, according to the device described in Psychopharmacologia 10, 1-5 (1966) by the Research Institute for Electrical Industry (Budapest, Hungary). The male and female rats (weighing 200-220 g) were trained to cross the berrier under the influence of a conditioned stimulus (CS) (light flash and buzzer sounds). […] And the performance which was not related to this condition was noted as an intersignal reaction (IR). The rats were trained with 100 trials per day for 5 days. One trial consisted of 15 sec intertrial interval. The saline solution of tetrabenazine was administered at a dose of 1 mg/kg subcutaneously before one hour prior to the test and then the solution of the compounds of this invention were administered at the doses of 1, 2, 2.5 and 5 mg/kg subcutaneously with the simultaneous administration of tetrabenazine. The nmbers of CARs, EFs and IRs were automatically counted and evaluated by multi-way analysis of variance (ANOVA).

In another data set the target is D2 receptor. In words: Affinity to D2 receptor. The arrangement: species or system rat. To be noted: read-out: Affinity to D2 receptor (MIC50; mole concentration for 50% inhibition of binding); 2.0 nM spiperone.
Another data set concerns the target T1, 5-HT2 receptor (Rattus norvegicus, UniProt P14842).
T1 construct: The precipitate was used as the solution of receptor; from tissue; host or cells: rat brain (whole) crude membranes
Put plainly: Affinity to 5-HT2 receptor. The data set is classed as binding.

In the next data set the target is α1 receptor. In words: Affinity to α1 receptor. The arrangement: species or system rat. Conditions: read-out: Affinity to α1 receptor (MIC50; mole concentration for 50% inhibition of binding); 0.25 nM ^3H-prazocin; 90 min. The protocol:
The solution of receptor was prepared as follows. As soon as rats were decapitated, brain was removed and its weight was measured. Its brain was homogenized in ten times volumes of ice-cold 0.35 M sucrose (pH 7.4) by glass homogenizer with teflon pestle which was revolted by motors. Thereafter, the homogenate was centrifuged at 4° C. at 900×g for 10 min and the supernatant was, furthermore, recentrifuged at 4° C. at 22,000×g for 20 min. The precipitate was suspended by addition of 5 mM phosphate buffer solution (pH 7.4). After the suspension was incubated at 37° C. for 30 min, the suspension was recentrifuged at 4° C. at 22,000×g for 20 min. The precipitate was resuspended by addition of 10 ml of 5 mM phosphate buffer solution (pH 8.0). The precipitate was used as the solution of receptor.
^3 H-prazocin was used as a ligand. 0.25 nM ^3 H-prazocin in 5 mM phosphate buffer (pH 8.0), the compound of this invention and the solution of receptor were added in tube and the mixture were incubated at 25° C. for 90 min. In addition, the […] binding was shown by binding value of ^3 H-prazocin under the coexistence with 0.1 μM prazocin. The binding reaction was carried out as follows. After ^3 H-prazocin (binding type: B) bound to receptor using glassfiberfilter (pore size: 0.5 μm, Whatman GF/C.) and free type of prazocin (free type: F) were separated with B/F separator (Brandel, USA), only the binding type of ^3 H-prazocin was collected. The binding type of ^3 H-prazocin absorbed to glass-fiber filter was washed with ice-cold saline solution and was remove to vial. After 10 ml of scintillation cocktail was added in it, the radioactivity was determined. From the binding inhibition rate of α1 receptor and ligand, affinity of the compounds of this invention to α1 receptor was measured.
If affinity of certain compound to a receptor is high, the binding ligand and receptor is inhibited.

For the next data set, the target named is α2 receptor. Put plainly: Affinity to α2 receptor. The arrangement: species or system rat. Conditions: read-out: Affinity to α2 receptor (MIC50; mole concentration for 50% inhibition of binding); 0.7 nM ^3H-rauwolscine.
Another data set has as its target 5-HT1 receptor. Put plainly: Affinity to 5-HT1 receptor. To be noted: read-out: Affinity to 5-HT1 receptor (MIC50; mole concentration for 50% inhibition of binding); 2 nM ^3H-5-HT. The arrangement: species or system rat.
The target of another data set is T2, D1 receptor (Rattus norvegicus, UniProt P18901).
T2 construct: The precipitate was used as the solution of receptor; from tissue; host or cells: rat brain (whole) crude membranes
T2 sequence (P18901 whole entry): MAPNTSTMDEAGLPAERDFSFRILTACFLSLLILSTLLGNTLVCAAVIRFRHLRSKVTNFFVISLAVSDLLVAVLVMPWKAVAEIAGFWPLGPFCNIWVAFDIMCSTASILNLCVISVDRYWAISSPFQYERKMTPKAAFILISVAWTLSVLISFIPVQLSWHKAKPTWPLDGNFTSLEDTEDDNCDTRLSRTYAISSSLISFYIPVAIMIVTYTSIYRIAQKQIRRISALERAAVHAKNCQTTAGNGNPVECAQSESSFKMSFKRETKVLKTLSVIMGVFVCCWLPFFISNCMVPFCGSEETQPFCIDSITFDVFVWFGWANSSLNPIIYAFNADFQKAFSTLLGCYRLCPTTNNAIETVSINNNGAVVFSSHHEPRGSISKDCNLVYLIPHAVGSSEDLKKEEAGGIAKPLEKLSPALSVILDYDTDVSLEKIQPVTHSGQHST
Put plainly: Affinity to D1 receptor. The data set is classed as binding.

T1 sequence (P14842 whole entry): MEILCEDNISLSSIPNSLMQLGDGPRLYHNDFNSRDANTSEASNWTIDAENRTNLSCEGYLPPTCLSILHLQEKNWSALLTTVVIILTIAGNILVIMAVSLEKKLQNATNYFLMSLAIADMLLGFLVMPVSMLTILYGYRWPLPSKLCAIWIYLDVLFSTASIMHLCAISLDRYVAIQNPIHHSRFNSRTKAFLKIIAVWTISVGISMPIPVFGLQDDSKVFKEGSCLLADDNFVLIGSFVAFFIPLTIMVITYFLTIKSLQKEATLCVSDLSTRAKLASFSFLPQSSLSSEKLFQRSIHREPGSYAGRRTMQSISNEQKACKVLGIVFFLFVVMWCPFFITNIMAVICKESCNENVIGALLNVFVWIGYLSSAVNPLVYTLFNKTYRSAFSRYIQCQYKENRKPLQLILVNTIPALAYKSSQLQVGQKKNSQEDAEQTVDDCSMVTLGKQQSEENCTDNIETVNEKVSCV

As to `CCCNC(CCC)Cc1ccccc1` (racemic) [PPAP, 1-phenyl-2-propylaminopentane, reference compound], the “Release of serotonin, raphe” value is listed as 0.416 ± 0.03 nmol/g tissue, for 20 min in the data set on serotonin release, raphe (0.25 mg/kg s.c.) and 0.741 ± 0.01 nmol/g tissue, for 20 min with serotonin release, raphe (1.00 mg/kg s.c.). Moreover, the activity at 24 h, 10 µM in [1] came out at 127 ± 5.45%. Further, the activity at 24 h, 100 µM in [1] came out at 152 ± 11.1%. In addition, the “LDH release, significance in words” value in data set [2] is reported as “released LDH significantly”. Also, the “Release of dopamine, tuberculum olfactorium” value in data set [3] (0.25 mg/kg s.c.) is 3.7 ± 0.10 nmol/g tissue, for 20 min; in [3] (1.00 mg/kg s.c.), 3.2 ± 0.21 nmol/g tissue, for 20 min. Moreover, the “Release of dopamine, substantia nigra” value in data set [4] (0.25 mg/kg s.c.) was 4.0 ± 0.24 nmol/g tissue, for 20 min; in data set [4] (1.00 mg/kg s.c.), 4.0 ± 0.21 nmol/g tissue, for 20 min. The “Release of noradrenaline, locus coeruleus” value (“Release of noradrenaline” for short) in [5] (0.25 mg/kg s.c.) is 3.8 ± 0.30 nmol/g tissue, for 20 min; in data set [5] (1.00 mg/kg s.c.), 4.6 ± 0.15 nmol/g tissue, for 20 min. Besides, the “Release of dopamine, striatum” value in data set [6] (0.25 mg/kg s.c.) was 3.5 ± 0.19 nmol/g tissue, for 20 min; in [6] (1.00 mg/kg s.c.), 3.6 ± 0.19 nmol/g tissue, for 20 min. In addition, the “Condition Avoidance Reflex (CARs)” value in [7] (5 mg/kg s.c.) is given as “**** .Arrow-up bold”. Further, the “Intersignal Reactions (IRs)” value in data set [7] (5 mg/kg s.c.) is recorded as “**** .Arrow-up bold”.

With `CCCNC(CCC)Cc1cccc2[nH]ccc12.Cl` (centres unmarked) [Compound No. 21, 1-(Indol-4-yl)-2-propylaminopentane Hydrochloride], the “Release of serotonin, raphe” value in the data set on serotonin release, raphe (0.01 mg/kg s.c.) is reported as 0.354 ± 0.00 nmol/g tissue, for 20 min. The IC50 at D2 receptor was more than 10 µM; at 5-HT2 receptor, more than 10 µM; on α1 receptor, more than 10 µM; on α2 receptor, 0.7 µM; on 5-HT1 receptor, more than 10 µM; on D1 receptor, more than 10 µM. The activity at 24 h, 10 µM in data set [1] was determined as 110 ± 4.42%. For the same molecule, in [1], the activity at 24 h, 100 µM came out at 130 ± 9.68%. Moreover, in data set [3] (0.01 mg/kg s.c.), the “Release of dopamine, tuberculum olfactorium” value was 7.4 ± 0.15 nmol/g tissue, for 20 min. Besides, the “Release of dopamine, substantia nigra” value in data set [4] (0.01 mg/kg s.c.) is on record as 10.0 ± 0.30 nmol/g tissue, for 20 min. For the same molecule, in data set [5] (0.01 mg/kg s.c.), the “Release of noradrenaline” value is listed as 4.6 ± 0.40 nmol/g tissue, for 20 min. In data set [6] (0.01 mg/kg s.c.), the “Release of dopamine, striatum” value was 5.4 ± 0.17 nmol/g tissue, for 20 min. The “Condition Avoidance Reflex (CARs)” value is “** .Arrow-up bold” in data set [7] (0.5 mg/kg s.c.) and “**** .Arrow-up bold” in [7] (1 mg/kg s.c.).

`CCCNC(CCC)Cc1cc2ccccc2o1.Cl` (centres unmarked) [Compound No. 25, 1-(Benzofuran-2-yl)-2-propylaminopentane Hydrochloride]: the “Release of serotonin, raphe” value in the data set on serotonin release, raphe (0.01 mg/kg s.c.) is on record as 0.457 ± 0.04 nmol/g tissue, for 20 min. In addition, the IC50 is more than 10 µM on D2 receptor; 20 µM against 5-HT2 receptor; more than 10 µM at α1 receptor; 1 µM at α2 receptor; more than 10 µM on 5-HT1 receptor; more than 10 µM against D1 receptor. The activity at 24 h, 10 µM in [1] came out at 90.3 ± 2.85%. Besides, in data set [1], the activity at 24 h, 100 µM was determined as 112 ± 37%. In data set [3] (0.01 mg/kg s.c.), the “Release of dopamine, tuberculum olfactorium” value is 6.5 ± 0.20 nmol/g tissue, for 20 min. For the same molecule, in [4] (0.01 mg/kg s.c.), the “Release of dopamine, substantia nigra” value was 6.6 ± 0.04 nmol/g tissue, for 20 min. Also, the “Release of noradrenaline” value in [5] (0.01 mg/kg s.c.) is on record as 4.3 ± 0.20 nmol/g tissue, for 20 min. In addition, the “Release of dopamine, striatum” value in data set [6] (0.01 mg/kg s.c.) is on record as 5.3 ± 0.14 nmol/g tissue, for 20 min. The “Condition Avoidance Reflex (CARs)” value in [7] (1 mg/kg s.c.) and in data set [7] (5 mg/kg s.c.) was “**** .Arrow-up bold” each time. Moreover, the “Escape Failures (EFs)” value in data set [7] (1 mg/kg s.c.) is “* .dwnarw”. Besides, the “Intersignal Reactions (IRs)” value in data set [7] (5 mg/kg s.c.) is given as “* .Arrow-up bold”.

The record behind these values is patent US6214859A, “Ethylamine derivatives” (Fujimoto Brothers Co., Ltd., priority 1997, dated 2001).
